In US20110245335A1, “NEW INHIBITORS FOR TREATING DISEASES ASSOCIATED WITH AN EXCESS TRANSPORT OF HYALURONAN” (priority 2008, published 2011):

Tests used:
hyaluronan export = test: Assay for hyaluronan transport/export inhibitors in fibroblast cell culture (hyaluronan in culture medium by ELISA); format: cell-based; details: 2 days at 37° C.
Method: Trypsinised fibroblasts were suspended in Dulbeccós medium at 10^5 cells/ml and 100 μl aliquots were transferred to a 96 well microtiter plate. The first row received 200 μl of the suspension and 20 μl of the inhibitors of the invention dissolved in phosphate buffered saline at concentrations of 4 mM. A serial dilution of the inhibitors was established by transfer of 100 μl aliquots from the first row to the following rows. All experiments were performed in duplicates. […] The cells were incubated for 2 days at 37° C. and aliquots (5 and 20 μl) of the culture medium were used for measurement of the hyaluronan concentration in the cell culture medium by an ELISA [125]. Briefly, the wells of a 96 well Covalink-NH-microtiter plate (NUNC) were coated with 100 μl of a mixture of […] of hyaluronan (Healon®), 9.2 μg/ml of N-Hydroxysuccinimide-3-sulfonic acid and 615 μl/ml of 1-ethyl-3-(3-dimethylaminopropyl)-carbodiimide for 2 hours at room temperature and overnight at 4° C. The wells were washed three times with 2 M NaCl, 41 mM MgSO4, 0.05% Tween-20 in 50 mM phosphate buffered saline pH 7.2 (buffer A) and once with 2 M NaCl, 41 mM MgSO4, in phosphate buffered saline pH 7.2. Additional binding sites were blocked by incubation with 300 μl of 0.5% bovine serum albumin in phosphate buffered saline for 30 min at 37° C. Calibration of the assay was performed with standard concentrations of hyaluronan ranging from 15 ng/ml to 6000 ng/ml in equal volumes of culture medium as used for measurement of the cellular supernatants. A solution (50 μl) of the biotinylated hyaluronan binding fragment of aggrecan (Calbiochem) in 1.5 M NaCl, 0.3 M guanidinium hydrochloride, 0.08% bovine serum albumin 0.02% NaN3 25 mM phosphate buffer pH 7.0 was preincubated with 50 μl of the standard hyaluronan solutions or cellular supernatants for 1 hour at 37° C. The mixtures were transferred to the hyaluronan-coated test plate and incubated for 1 hour at 37° C. The microtiter plate was washed three times with buffer A and incubated with 100 μl/well of a solution of streptavidin-horseraddish-peroxidase (Amersham) at a dilution of 1:100 in phosphate buffered saline, 0.1% Tween-20 for 30 min at room temperature. The plate was washed five times with buffer A and the colour was developed by incubation with a 100 μl/well of a solution of 5 mg o-phenylenediamine and 5 μl 30% H2O2 in 10 ml of 0.1 M citrate-phosphate buffer pH 5.3 for 25 min at room temperature. The adsorption was read at 490 nm. The concentrations in the samples were calculated from a logarithmic regression curve of the hyaluronan standard solutions.

[1] = pKa of the acidic moiety (stated in design rationale, no method); format: physicochemical; details: approximate values given in design rationale; no method described; read-out: pKa of the carboxylic moiety or its replacement
[2] = system: II-1α activated bovine cartilage explants; details: ref [14]; cited from earlier work

Compound | pKa [1] | IC50 (hyaluronan export; Fibroblast, 48 h) | other results
CC(=O)Nc1ccccc1Oc1cccc(O)c1C(=O)O [Compound 86] | ~3 |  | IC50 for hyaluronan export (hyaluronan export): no inhibitory activity
CC(=O)Nc1c(O)cc(O)cc1Oc1ccc(NC/C=C/c2ccccc2)cc1C(=O)O [Compound 96] |  | 10 µM | 
CC(=O)Nc1c(O)cccc1Oc1ccccc1C(=O)NO [Compound 97] | ~8 |  | IC50 (hyaluronan export; listed as No. 97): 30 µM
CC(=O)Nc1c(O)cc(O)cc1Oc1cccc(N(C)C)c1C(=O)O [Compound 98] |  | 200 µM | 
CC(=O)Nc1c(O)cc(O)cc1Oc1ccc(Cl)cc1S(=O)(=O)O [Compound 99] | ~1 | ~80 µM | 
CCCOc1ccccc1-c1nc2nn[nH]c2c(=O)[nH]1 [zaprinast] |  |  | infiltration of degrading enzymes [2]: reduced; proteoglycan content and collagen degradation [2]: normalized
